Data as given in PubChem BioAssay (NCI).
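Five concentrations, 48 hours, 96-well plates. The concentration for 50% growth inhibition is given as GI50. The concentration for full growth arrest is given as TGI.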

Experiments:
Assay in all cases: NCI-60 cell line screen, 48 h
[1] = test system: 786-0 renal
[2] = test system: A498 renal
[3] = test system: A549 NSCLC
[4] = test system: ACHN renal
[5] = test system: BT-549 breast
[6] = test system: CAKI-1 renal
[7] = test system: CCRF-CEM leukemia
[8] = test system: COLO 205 colon
[9] = test system: DU-145 prostate
[10] = test system: EKVX NSCLC
[11] = test system: HCC-2998 colon
[12] = test system: HCT-116 colon
[13] = test system: HCT-15 colon
[14] = test system: HL-60(TB) leukemia
[15] = test system: HOP-62 NSCLC
[16] = test system: HOP-92 NSCLC
[17] = test system: HS 578T breast
[18] = test system: HT29 colon
[19] = test system: IGROV1 ovarian
[20] = test system: K-562 leukemia
[21] = test system: KM12 colon
[22] = test system: LOX IMVI melanoma
[23] = test system: M14 melanoma
[24] = test system: MALME-3M melanoma
[25] = test system: MCF7 breast
[26] = test system: MDA-MB-231 breast
[27] = test system: MDA-MB-435
[28] = test system: MOLT-4 leukemia
[29] = test system: NCI-H226 lung
[30] = test system: NCI-H23 lung
[31] = test system: NCI-H460 lung
[32] = test system: NCI-H522 lung
[33] = test system: NCI/ADR-RES ovarian
[34] = test system: OVCAR-3 ovarian
[35] = test system: OVCAR-4 ovarian
[36] = test system: OVCAR-5 ovarian
[37] = test system: OVCAR-8 ovarian
[38] = test system: PC-3 prostate
[39] = test system: RPMI-8226 leukemia
[40] = test system: RXF 393 renal
[41] = test system: SF-268 CNS
[42] = test system: SF-295 CNS
[43] = test system: SF-539 CNS
[44] = test system: SK-MEL-2 melanoma
[45] = test system: SK-MEL-28 melanoma
[46] = test system: SK-MEL-5 melanoma
[47] = test system: SK-OV-3 ovarian
[48] = test system: SN12C renal
[49] = test system: SNB-19 CNS
[50] = test system: SNB-75 CNS
[51] = test system: SR leukemia
[52] = test system: SW-620 colon
[53] = test system: T-47D breast
[54] = test system: TK-10 renal
[55] = test system: U251 CNS
[56] = test system: UACC-257 melanoma
[57] = test system: UACC-62 melanoma
[58] = test system: UO-31 renal

With `O=C1[C@@H]2Cc3c([nH]c4ccccc34)[C@H](c3c(Cl)cccc3Cl)N2C(=O)CN1C1CCN(Cc2ccccc2)CC1` as the compound, how does the GI50 [1] read?
Its GI50 is 2.5 µM.

And the TGI [1]?
Its TGI is 4.7 µM.

What about the GI50 [2] of the same compound?
Its GI50 is 3.49 µM.

And the TGI [2]?
Its TGI is 12.4 µM.

And the GI50 [3]?
The GI50 was 2.68 µM.

And the TGI [3]?
Its TGI is 7.2 µM.

And the GI50 [4]?
The GI50 was 2.19 µM.

And the TGI [4]?
Its TGI is 4.15 µM.

What about the GI50 [5] of the same compound?
Its GI50 is 2.22 µM.

And the TGI [5]?
The TGI was 5.17 µM.

And the GI50 [6]?
Its GI50 is 1.81 µM.

And the TGI [6]?
The TGI was 4.79 µM.

What about the GI50 [7] of the same compound?
The GI50 was 4.33 µM.

And the TGI [7]?
The TGI was over 14.3 µM.

And the GI50 [8]?
The GI50 was 4.09 µM.

And the TGI [8]?
The TGI was over 14.3 µM.

And the GI50 [9]?
Its GI50 is 4.55 µM.

What about the TGI [9] of the same compound?
The TGI was over 14.3 µM.

And the GI50 [10]?
The GI50 was 6.78 µM.

What about the TGI [10] of the same compound?
Its TGI is over 14.3 µM.

And the GI50 [11]?
The GI50 was 2.27 µM.

What about the TGI [11] of the same compound?
Its TGI is 4.72 µM.

What about the GI50 [12] of the same compound?
Its GI50 is 2.6 µM.

What about the TGI [12] of the same compound?
Its TGI is 5.49 µM.

What about the GI50 [13] of the same compound?
Its GI50 is 2.52 µM.

What about the TGI [13] of the same compound?
The TGI was 5.09 µM.

And the GI50 [14]?
The GI50 was 4.03 µM.

What about the TGI [14] of the same compound?
Its TGI is 13.6 µM.

What about the GI50 [15] of the same compound?
Its GI50 is 2.29 µM.

And the TGI [15]?
The TGI was 5.66 µM.

And the GI50 [16]?
The GI50 was 1.55 µM.

And the TGI [16]?
The TGI was 7.25 µM.

And the GI50 [17]?
The GI50 was 2.21 µM.

And the TGI [17]?
Its TGI is 6.52 µM.

What about the GI50 [18] of the same compound?
Its GI50 is 3.23 µM.

And the TGI [18]?
The TGI was 8.02 µM.

What about the GI50 [19] of the same compound?
Its GI50 is 2.07 µM.

And the TGI [19]?
Its TGI is 7.52 µM.

What about the GI50 [20] of the same compound?
The GI50 was 2.98 µM.

And the TGI [20]?
The TGI was 7.56 µM.

And the GI50 [21]?
Its GI50 is 4.59 µM.

And the TGI [21]?
The TGI was over 14.3 µM.

And the GI50 [22]?
The GI50 was 2.21 µM.

And the TGI [22]?
The TGI was 4.54 µM.

And the GI50 [23]?
Its GI50 is 2.42 µM.

And the TGI [23]?
Its TGI is 6.47 µM.

What about the GI50 [24] of the same compound?
The GI50 was 2.3 µM.

And the TGI [24]?
The TGI was 4.87 µM.

And the GI50 [25]?
Its GI50 is 2.13 µM.

And the TGI [25]?
Its TGI is 4.61 µM.

And the GI50 [26]?
Its GI50 is 2.57 µM.

And the TGI [26]?
Its TGI is 6.27 µM.

What about the GI50 [27] of the same compound?
Its GI50 is 2.36 µM.

What about the TGI [27] of the same compound?
Its TGI is 4.81 µM.

And the GI50 [28]?
Its GI50 is 3.03 µM.

And the TGI [28]?
The TGI was 13.8 µM.

What about the GI50 [29] of the same compound?
Its GI50 is 10.6 µM.

And the TGI [29]?
The TGI was over 14.3 µM.

And the GI50 [30]?
Its GI50 is 4.77 µM.

And the TGI [30]?
The TGI was over 14.3 µM.

What about the GI50 [31] of the same compound?
Its GI50 is 2.82 µM.

And the TGI [31]?
The TGI was 5.68 µM.

What about the GI50 [32] of the same compound?
The GI50 was 2.95 µM.

And the TGI [32]?
Its TGI is 7.7 µM.

What about the GI50 [33] of the same compound?
The GI50 was 2.78 µM.

And the TGI [33]?
The TGI was 6.86 µM.

What about the GI50 [34] of the same compound?
Its GI50 is 2.85 µM.

What about the TGI [34] of the same compound?
Its TGI is 6.83 µM.

And the GI50 [35]?
The GI50 was 2.42 µM.

What about the TGI [35] of the same compound?
The TGI was 5.1 µM.

What about the GI50 [36] of the same compound?
Its GI50 is 3.12 µM.

What about the TGI [36] of the same compound?
The TGI was 9.29 µM.

What about the GI50 [37] of the same compound?
The GI50 was 3.8 µM.

What about the TGI [37] of the same compound?
The TGI was 13.1 µM.

And the GI50 [38]?
The GI50 was 3.06 µM.

What about the TGI [38] of the same compound?
Its TGI is 10.7 µM.

What about the GI50 [39] of the same compound?
The GI50 was 2.74 µM.

What about the TGI [39] of the same compound?
The TGI was 8.28 µM.

And the GI50 [40]?
The GI50 was 1.92 µM.

And the TGI [40]?
Its TGI is 3.86 µM.

What about the GI50 [41] of the same compound?
Its GI50 is 2.82 µM.

What about the TGI [41] of the same compound?
Its TGI is 10.8 µM.

What about the GI50 [42] of the same compound?
The GI50 was 2.46 µM.

What about the TGI [42] of the same compound?
Its TGI is 4.62 µM.

What about the GI50 [43] of the same compound?
The GI50 was 2.37 µM.

And the TGI [43]?
The TGI was 4.55 µM.

And the GI50 [44]?
The GI50 was 4.94 µM.

And the TGI [44]?
Its TGI is over 14.3 µM.

And the GI50 [45]?
The GI50 was 2.37 µM.

And the TGI [45]?
Its TGI is 4.55 µM.

What about the GI50 [46] of the same compound?
Its GI50 is 2.4 µM.

And the TGI [46]?
The TGI was 4.82 µM.

And the GI50 [47]?
The GI50 was 2.85 µM.

What about the TGI [47] of the same compound?
Its TGI is 8.47 µM.

And the GI50 [48]?
Its GI50 is 2.35 µM.

What about the TGI [48] of the same compound?
The TGI was 5.31 µM.

What about the GI50 [49] of the same compound?
Its GI50 is 5.25 µM.

What about the TGI [49] of the same compound?
Its TGI is over 14.3 µM.

What about the GI50 [50] of the same compound?
The GI50 was 0.719 µM.

What about the TGI [50] of the same compound?
Its TGI is 3.43 µM.

And the GI50 [51]?
The GI50 was 2.32 µM.

And the TGI [51]?
The TGI was 6.92 µM.

What about the GI50 [52] of the same compound?
Its GI50 is 2.93 µM.

What about the TGI [52] of the same compound?
The TGI was 7.19 µM.

What about the GI50 [53] of the same compound?
The GI50 was 2.59 µM.

What about the TGI [53] of the same compound?
Its TGI is 7.95 µM.

What about the GI50 [54] of the same compound?
The GI50 was 2.58 µM.

And the TGI [54]?
Its TGI is 5.13 µM.

And the GI50 [55]?
Its GI50 is 2.34 µM.

What about the TGI [55] of the same compound?
Its TGI is 4.63 µM.

What about the GI50 [56] of the same compound?
The GI50 was 2.46 µM.

And the TGI [56]?
Its TGI is 5.68 µM.

And the GI50 [57]?
The GI50 was 2.26 µM.

And the TGI [57]?
Its TGI is 4.66 µM.

And the GI50 [58]?
The GI50 was 1.43 µM.

And the TGI [58]?
Its TGI is 3.15 µM.
